This passage reports EC50 results from ChEMBL document CHEMBL4433197, “Nuclear Factor Erythroid 2-Related Factor 2 (Nrf2) Inhibition: An Emerging Strategy in Cancer Therapy” (J Med Chem, 2019).

In general, EC50 refers to the concentration that produces a half-maximal response. Lower therefore signals an effect from little substance.

The target in this experiment is T1, Nuclear factor erythroid 2-related factor 2 (Mus musculus, UniProt Q60795).
T1 sequence (Q60795 whole entry): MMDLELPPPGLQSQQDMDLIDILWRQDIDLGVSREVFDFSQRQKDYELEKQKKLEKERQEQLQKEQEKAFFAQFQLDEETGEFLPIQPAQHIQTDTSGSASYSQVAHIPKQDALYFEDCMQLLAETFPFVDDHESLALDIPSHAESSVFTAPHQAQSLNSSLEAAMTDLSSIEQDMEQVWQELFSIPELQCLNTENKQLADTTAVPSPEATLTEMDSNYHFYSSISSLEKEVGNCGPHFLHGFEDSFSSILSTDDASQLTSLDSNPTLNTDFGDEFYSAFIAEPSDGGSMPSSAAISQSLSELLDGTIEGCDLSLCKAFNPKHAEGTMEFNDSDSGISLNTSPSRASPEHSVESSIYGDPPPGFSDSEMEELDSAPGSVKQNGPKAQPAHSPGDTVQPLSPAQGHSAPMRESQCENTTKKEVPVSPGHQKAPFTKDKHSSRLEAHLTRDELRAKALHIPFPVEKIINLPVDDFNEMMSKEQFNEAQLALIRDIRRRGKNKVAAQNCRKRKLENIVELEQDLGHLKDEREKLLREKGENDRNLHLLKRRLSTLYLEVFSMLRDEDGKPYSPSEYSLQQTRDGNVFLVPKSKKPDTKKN
Nature of the experiment: Inhibition of Nrf2 in mouse MYC-3T3-ARELUC cells harboring a stably integrated ARE by firefly luciferase reporter gene assay. It is filed as cell-based. For orientation: A reporter such as luciferase makes a cellular process visible.

For `Fc1ccc(-c2csc3ncnc(NCc4ccc5c(c4)OCO5)c23)cc1`, a half-maximal effect (EC50) was put at 650 nM.
